According to patent US20090082285A1, “Adiponectin expression promoter” (SAN-EI GEN F.F.I., INC., priority 2003, published 2009):

Tested on: adiponectin mRNA in epididymis adipose cells
Assay: Adiponectin mRNA level in isolated epididymis adipose cells (RT-PCR, gel densitometry)
Assay type: cell-based, Wistar male rat
Conditions: for mRNA level: adiponectin mRNA, control (DMSO) defined as 1, cultured 24 hours at 37° C.; for adiponectin mRNA level in adipose tissue (result in words): conclusion from FIG. 1 and Table 5, 100 μM or 250 μM vs DMSO control
Procedure: A Wistar male rat (body weight of 160 g) was sacrificed and its epididymis adipose tissues were excised. The epididymis adipose tissues were placed in 0.5% bovine serum albumin (BSA)/30 mM HEPES/200 nM adenosine/Krebs Ringer bicarbonate buffer(BSA-KRBH) containing 1176 units/mL of collagenase (Sigma, type II), and allowed to stand at 37° C. for 90 minutes (hereunder, 0.5% BSA/30 mM HEPES/200 nM adenosine/Krebs Ringer bicarbonate buffer is referred to as BSA-KRBH). Adipose cells were isolated from the connective tissue by the above-described operation. The isolated adipose cells were then washed with BSA-KRBH four times, and the thus-obtained adipose cells were suspended in a BSA-KRBH culture medium.
Subsequently, to the thus-obtained suspension, a solution prepared by dissolving cyanidin (Cy; manufactured by Funakoshi Co., Ltd.) or cyanidin 3-O-β-D-glucoside (hereinafter, referred to as “cyanidin 3-glucoside”)(C3G; manufactured by Funakoshi Co., Ltd.) in DMSO was added in such a manner that the final concentration of cyanidin or cyanidin 3-glucoside was 100 μM or 250 μM. The resulting solutions were cultured under 5% CO2 at 37° C. for 24 hours, and the adipose cells were then collected.
Total RNAs were extracted from the thus-obtained adipose cell using an RNA extracting reagent (ISOGEN, manufactured by Nippon Gene Co., Ltd.) by following the instruction manual (http://www.nippongene.jp/pages/products/extraction/isogen/genol. html). Using the total RNAs as a template, a reverse transcription reaction was conducted at 37° C. for 120 minutes, and the RNAs were amplified by 20 cycles of PCR (RT-PCR (Reverse transcription-polymerase chain reaction) method). Specifically, 2.5 μg of total RNAs was subjected to reverse transcription in a buffer solution comprising oligo dT primer, 1.3 mM dNTP (deoxynucleoside triphosphates, GIBCO BRL, Grand Island, N.Y.), 10 mM DTT (dithiothreitol, GIBCO BRL), and 200 U of RNase inhibitor (GIBCO BRL) using 200 U of Moloney murine leukemia virus reverse transcriptase (GIBCO BRL) at 37° C. for 120 minutes, then allowed to stand at 94° C. for 2 minutes, and the reaction was terminated. The thus-generated cDNAs were amplified in a 0.01% Tween 20/0.2 mM dNTP/2 mM MgCl2/75 mM Tris buffer (pH 8.8) containing 1 μM 5′-primer([…]) and 3′-primer([…]), using 1.5 U of Taq DNA polymerase (MBI Fermentas, Lithuania) by repeating 20 cycles of PCR (each cycle comprised a denaturation step at 94° C. for 30 seconds, an annealing step. at 58° C. for 30 seconds, and an extension reaction step at 72° C. for 30 seconds), and then allowed to stand at 72° C. for 10 minutes.
The RT-PCR product (502 bp) was applied to a 1% agarose gel with DNA size markers, and subjected to electrophoresis in a Tris-Acetate-EDTA buffer at 100 V for about 30 minutes. After conducting electrophoresis, the gel was dipped in an ethidium bromide solution, shaken for 15 minutes, and then stained. Subsequently, the fluorescence intensity of the gel was measured using a gel analysis program (ATTO Lane Analyzer 10H Software Densitograph provided by Atto Corporation).
Note that, in FIG. 1, the control is epididymis adipose cells to which only DMSO was added.

Row | Structure (SMILES) | mRNA level (100 μM) | mRNA level (250 μM) | adiponectin mRNA level in adipose tissue (result in words)
1 | OCC1OC(Oc2cc3c(O)cc(O)cc3[o+]c2-c2ccc(O)c(O)c2)C(O)C(O)C1O [Cyanidin 3-glucoside, cyanidin 3-O-β-D-glucoside] | 2.7 | 2.1 | increased adiponectin mRNA level
2 | Oc1cc(O)c2cc(O)c(-c3ccc(O)c(O)c3)[o+]c2c1 [Cyanidin, cyanidin] | 2.1 | 2.2 | increased adiponectin mRNA level
